According to patent publication US10543157B2, “Method of treating a hair disorder with N-hydroxypyridinones” (The Procter & Gamble Company, priority 2016, dated 2020):
pEC50: −log10 of the molar value. Where a name gives a salt, the structure may show the parent alone.

Columns and labels:
[1] = tested on: telogen (resting) hairs of scalp; test: Clinical study #2, telogen hair count; type: in vivo, human; conditions: for TELOGEN Hair counts Change from Baseline Mean +/− SE / TELOGEN Hair counts Difference of CFBs Mean +/− SE: time not given in table (text: week 8)
Text: (§1) Subjects have the imaging sites located and tattoos placed within the imaging sites to mark the area that will be used for image capture. Three days post-tattoo placement, subjects will begin the pretreatment phase during which they applied their pretreatment products on the designated side of their scalp (left/right) for 11 days as a way of training subjects on the tonic application procedures. After the pretreatment phase has been completed, qualified subjects begin the 16-week treatment phase. Within each treatment group, left/right product assignments are randomized (tonic product and vehicle). In the first study subjects applied the assigned tonic product to the designated side of the scalp twice a day. The morning before each site visit, subjects wash and dry their hair and refrain from applying their test products and any styling aides until after their study visit has been completed. Subjects are instructed to wash hair at least every other day with a standard 2-in-1 shampoo during the entire washout and treatment phases. In the second study, after the pretreatment phase has been completed, subjects had their hair washed using the standard shampoo (½ head washing procedure) by a trained operator and blown dry by themselves. After washing hair (no treatment products and no styling products after washing), the two 1.8×1.8 cm imaging sites on the midfrontal/parietal scalp are clipped for hair count analysis as described below. Site staff then apply the two treatment products to the assigned sites (3×3 cm) on the scalp. Subjects return to the study site later in the day and site staff apply the 2nd application of treatment products for that day (i.e. twice a day tonic application) to each site. The following day, the subjects return to the test site and have their hair washed using the standard shampoo (½ head washing procedure) by site staff and blown dry themselves. Images of the two sites are captured for anagen hair count.
(§2) The following day and for every day during the 8-week treatment phase subjects returned to the study site in the morning and had their hair washed by site staff (½ head washing procedure) and blown dry by themselves in the morning before the 1st application of treatment products of the day. Site staff then apply the two treatment products to the assigned sites (3×3 cm) on the scalp. Subjects return to the study site later in the day and site staff apply the 2nd application of the treatment products for that day (i.e. twice a day tonic application) to each site.
(§3) An efficacy end point of these studies is the change from baseline in target area hair count (hairs/cm2) at week 8 and/or 16, as applicable. Initial hair count and growth phase assessments are performed at baseline and at weeks 8 and 16, as applicable, in a designated target area of the scalp identified by the mini tattoo applied at baseline. The assessments are performed using a 1.8-cm2 square template centered over the mini tattoo. Hair within the template is clipped to approximately 1 mm in length. Photographic imaging equipment is supplied by Canfield Scientific Inc (Fairfield, N.J.) and is used to take macrophotographs of the shaved target area. The equipment comprises a Nikon D-SLR camera body (Nikon Corporation, Tokyo, Japan), Nikkor 60 MM F2.8 lens (Nikon Corporation), and a Canfield Epiflash (Canfield Scientific Inc, Fairfield, N.J.) with a glass contact plate and is preset and locked for magnification, f-stop, and exposure control. The analysis of the hair count photographs is performed by Canfield's core imaging laboratory. (ref: Harness J A, Kohut B, Garner J, Canfield W, Canfield D, Bertolino A. Evaluation of hair count and thickness measurements in male and female pattern hair loss using a computer-assisted technique. Poster presented at: European Hair Research Society; Zurich, Switzerland, Jul. 7-9, 2005.) The same 1 cm^2 area is mapped among the baseline, week 8, and week 16 images using the dot tattoo as a reference. […]

[2] = tested on: anagen (growing) hairs of scalp; test: Clinical study #2, anagen hair count; type: in vivo, human; conditions: for ANAGEN Hair counts Change from Baseline Mean +/− SE / ANAGEN Hair counts Difference of CFBs Mean +/− SE: time not given in table (text: week 8)
Text: as §1, §2
as §3, with “control.” for “control. The analysis of the hair count photographs is performed by Canfield's core imaging laboratory. (ref: Harness J A, Kohut B, Garner J, Canfield W, Canfield D, Bertolino A. Evaluation of hair count and thickness measurements in male and female pattern hair loss using a computer-assisted technique. Poster presented at: European Hair Research Society; Zurich, Switzerland, Jul. 7-9, 2005.) The same 1 cm^2 area is mapped among the baseline, week 8, and week 16 images using the dot tattoo as a reference.”

[3] = tested on: scalp hair (target area hair count); test: Clinical study #2, split-scalp, total hair count; type: in vivo, human; conditions: topical twice a day
Experimental: (§4) Two randomized, double-blind, vehicle-controlled split-scalp studies are conducted as follows:
as §1
as §2, with “The following day and for every day during the 8-week treatment phase subjects returned to the” left out
An efficacy end point of these studies is the change from baseline in target area hair count (hairs/cm2) at week 8 and/or 16, as applicable. […]

[4] = tested on: scalp hair (target area hair count); test: Clinical study #1, split-scalp, total hair count; type: in vivo, human; conditions: for Total Hair Count Change from Baseline Mean +/− SE / Total Hair Count Difference of CFBs (active minus vehicle) Mean +/− SE: topical twice a day, test compound 1%, minoxidil 2% (Rogaine for Women)
Experimental: as §4
Two weeks prior to the Baseline visit, subjects are randomized into one of the 2 treatment groups appearing in the table below.
as §1
as §3, with “reference. Each image is then assigned a definite tracking number and randomized before analysis. The compliant and validated Canfield Hair Metrix (Canfield Scientific Inc, Fairfield, N.J.) image analysis application measures the total number of hair fibers and number of telogen and anagen hair.” for “reference.”

VEGF = test: In-vitro cell based VEGF induction (ELISA); conditions: human dermal fibroblasts, 24 hrs treatment, spent media, normalized to ATP
Text: (§5) Wherein R′ and R″ are independently either hydrogen or a substituted or unsubstituted hydrocarbon group having between 1 and 20 carbon atoms. Compounds of this class can be synthesized following the procedure disclosed in U.S. Pat. No. 5,675,013. In certain aspects, the 2-pyridinol-N-oxide compound is 1-hydroxy-6-(octyloxy)-2(1H)-Pyridinone. This compound can be synthesized following the procedure disclosed in U.S. Pat. No. 5,675,013. Methods In-Vitro Cell Based Method for Measuring HIF-1 Stabilization and VEGF Induction: Human dermal fibroblasts are maintained and treated in Dulbecco's Modified Eagle Medium (DMEM) supplemented with 10% fetal bovine serum (FBS) and 1% penicillin/streptomycin. For HIF and VEGF experiments, cells are plated at 10,000 cells per well in 96-well plates. After two days, cells are treated with materials of interest solubilized in DMSO. DMSO concentration in media never exceeded 0.5%. Treatment times are 4 hrs for HIF-1a and 24 hrs for VEGF. Analytes are assayed via ELISA. After 4 hrs treatment, cells are fixed and assayed for HIF-1a using the Human/Mouse Total HIF-1a Immunoassay (R&D Systems) according to manufacturer instructions. After 24 hrs treatment, spent culture media are harvested and assayed for VEGF using the V-PLEX Human VEGF Kit (MSD) according to manufacturer instructions. HIF-1a and VEGF signals are normalized to cytochrome c signal and ATP signal, respectively, and then compared to that of untreated control. Half-maximal effective concentrations of materials are calculating using GraphPad Prism version 6 software or any other suitable software.

HIF-1α = test: In-vitro cell based HIF-1 stabilization (ELISA); conditions: human dermal fibroblasts, 4 hrs treatment, normalized to cytochrome c
Text: as §5

[5] = Study #2, 16 weeks (so in the source)
[6] = versus vehicle (minoxidil: versus baseline and vehicle), week 8

With Nc1cc(N2CCCCC2)nc(N)[n+]1[O-] [Minoxidil, reference compound] the “TELOGEN Hair counts Change from Baseline Mean +/− SE” value [1] was −4.07 +/− 1.71 hairs/cm^2, the “TELOGEN Hair counts Difference of CFBs Mean +/− SE” value [1] was −7.45 +/− 1.85 hairs/cm^2 and the “ANAGEN Hair counts Change from Baseline Mean +/− SE” value [2] was 8.66 +/− 1.75 hairs/cm^2. For the same compound, the “ANAGEN Hair counts Difference of CFBs Mean +/− SE” value [2] was 7.79 +/− 1.87 hairs/cm^2, the “Total Hair Count Change from Baseline Mean +/− SE” value [3, 5] was 12.93 +/− 1.77 hairs/cm^2 and the “Total Hair Count Difference of CFBs (active minus vehicle) Mean +/− SE” value [3, 5] was 5.76 +/− 2.1 hairs/cm^2. For the same compound, the “Total Hair Count Change from Baseline Mean +/− SE” value ([4]; Study #1, 8 weeks) was 14.3 +/− 2.98 hairs/cm^2, the “Total Hair Count Difference of CFBs (active minus vehicle) Mean +/− SE” value ([4]; Study #1, 8 weeks) was 11.29 +/− 3.02 hairs/cm^2 and the “Total Hair Count Change from Baseline Mean +/− SE” value ([4]; Study #1, 16 weeks) was 14.83 +/− 3.53 hairs/cm^2. For the same compound, the “Total Hair Count Difference of CFBs (active minus vehicle) Mean +/− SE” value ([4]; Study #1, 16 weeks) was 13.45 +/− 3.47 hairs/cm^2.

CCCCCCCCOc1cccc(=O)n1O [N-Hydroxy-6-octyloxypyridine-2(1H)one, ethanolamine salt] gave a pEC50 (VEGF) of 4.89.

For CCCCCCCCOc1cccc(=O)n1O [N-Hydroxy-6-octyloxypyridine-2(1H)one], the pEC50 (VEGF; Fibroblast) was 4.52, the “telogen effluvium (shedding)” value ([1]; conclusion drawn from telogen counts) was “will not cause telogen effluvium” and the “TELOGEN Hair counts Change from Baseline Mean +/− SE” value [1] was 2.96 +/− 1.11 hairs/cm^2. For the same compound, the “TELOGEN Hair counts Difference of CFBs Mean +/− SE” value [1] was 0.51 +/− 1.21 hairs/cm^2, the “number of telogen (resting) hairs (in words)” value [1, 6] was “little or no effect” and the “ANAGEN Hair counts Change from Baseline Mean +/− SE” value [2] was 3.82 +/− 1.14 hairs/cm^2. For the same compound, the “ANAGEN Hair counts Difference of CFBs Mean +/− SE” value [2] was 3.18 +/− 1.22 hairs/cm^2, the “number of anagen (growing) hairs (in words)” value [2, 6] was “significant increase in growing hairs” and the “Total Hair Count Change from Baseline Mean +/− SE” value ([3]; Study #2, 8 weeks, 0.9%) was 10.13 +/− 1.15 hairs/cm^2. For the same compound, the “Total Hair Count Difference of CFBs (active minus vehicle) Mean +/− SE” value ([3]; Study #2, 8 weeks, 0.9%) was 3.35 +/− 1.37 hairs/cm^2, the pEC50 (HIF-1α; Fibroblast) was 4.77 and the “Total Hair Count Change from Baseline Mean +/− SE” value ([4]; Study #1, 8 weeks) was 6.15 +/− 1.91 hairs/cm^2. For the same compound, the “Total Hair Count Difference of CFBs (active minus vehicle) Mean +/− SE” value ([4]; Study #1, 8 weeks) was 3.94 +/− 1.71 hairs/cm^2, the “Total Hair Count Change from Baseline Mean +/− SE” value ([4]; Study #1, 16 weeks) was 3.11 +/− 1.79 hairs/cm^2 and the “Total Hair Count Difference of CFBs (active minus vehicle) Mean +/− SE” value ([4]; Study #1, 16 weeks) was 3.27 +/− 1.73 hairs/cm^2. For the same compound, the “hair count response as share of the minoxidil response, on average” value ([4]; Study #1, average of week 8 and 16) was 29% and the “hair count from baseline and above vehicle treatment (in words)” value ([4]; Study #1, week 8 & 16 (p=0.019 and p=0.045)) was “significant increase in hair count”.

With Cc1cc(C2CCCCC2)n(O)c(=O)c1 [6-cyclohexyl-1-hydroxy-4-methyl-2(1H)-pyridinone] the pEC50 (VEGF; Fibroblast) was 5.60 and the pEC50 (HIF-1α; Fibroblast) was 5.41.

With CCOC(=O)c1ccnc(C(=O)OCC)c1 [2,4-DPD, 2,4-pyridinedicarboxylic acid, diethyl ester, reference compound] the “EC50 VEGF Induction” value (VEGF) was “no response” and the pEC50 (HIF-1α; Fibroblast) was 3.39.

Compound Cc1cc(CC(C)CC(C)(C)C)n(O)c(=O)c1 (stereo not shown) [1-Hydroxy-4-methyl-6-(2,4,4-trimethylpentyl)pyridin-2(1H)-one ethanolammonium salt] has a pEC50 (VEGF) of 5.68 and a pEC50 (HIF-1α) of 6.40.
